# In patent US20250270191A1, “QUINOLONE BCL6 BIFUNCTIONAL DEGRADERS” (Treeline Biosciences, Inc., priority 2022, published 2025):
# Target: T1, Human BCL6 protein (N-terminal HiBiT tagged BCL6 in HT1080 cells) (Homo sapiens, UniProt P41182+Q96SW2)
# T1 construct: Human BCL6 protein coding open reading frame; expressed in transfected cells; host or cells: HT1080 (ATCC CCL-121), stably transduced with lentivirus pLV-UBC-N-HiBiT-BCL6-PGK-puro
# Test: HiBiT based BCL6 degradation assay
# Assay type: cell-based
# Conditions: HT1080 cells expressing N-terminal HiBiT tagged BCL6; 5 hours incubation; BCL6 degradation normalized with DMSO control
# Excerpt: Human BCL6 protein coding open reading frame fused with N-terminal HiBiT coding sequence was synthesized from Integrated DNA Technologies (IDT). Next, the N-HiBiT-BCL6 sequence was cloned into pLV-UBC-PGK-Puro, a lentivirus plasmid purchased from Vectorbuilder, to generate pLV-UBC-N-HiBiT-BCL6-PGK-puro. Lentiviral particles were generated from Lenti-X™ 293T cells (Clontech) by co-transfection of pLV-UBC-N-HiBiT-BCL6-PGK-puro plasmids and lentiviral packaging plasmid mix (Cellecta). HT1080 [HT1080] (ATCC CCL-121) cells were infected with the lentivirus, and HT1080 cells stably integrated with the lentiviral vectors were established by incubation with 1 μg/mL puromycin (Thermofisher).
# HT1080 cells expressing N-terminal HiBiT tagged BCL6 were dispensed into a 384-well plate pre-spotted with compounds at varying concentrations. Five thousand cells were seeded into each well in 40 μL of RPMI 1640 media plus 10% Fetal Bovine Serum (10082-147, Thermofisher). After 5 hours of incubation at 37° C. with 5% CO2, 30 μL of the NANO-GLO® HiBiT Lytic Detection System working solution (Promega) was added to each well and incubated at room temperature for 15 min. After incubation, luminescence was read on a PHERAstar FSX Plate Reader (BMG). BCL6 degradation at each indicated concentration was normalized with DMSO control. The BCL6 degradation curves were plotted using a four-parameter logistic model.
row,Ymin (5 hr),SMILES
1,+ (Ymin > 70%),"CNC(=O)COc1cc2cc(Nc3nc(NC[C@H]4CC[C@@H](Nc5ccc6c(C7CCC(=O)NC7=O)nn(C)c6c5)CC4)ncc3Cl)ccc2n(C)c1=O (some centres unmarked) [Compound 289a, 2-((6-((5-chloro-2-((((1s,4s)-4-((3-(2,6-dioxopiperidin-3-yl)-1-methyl-1H-indazol-6-yl)amino)cyclohexyl)methyl)amino)pyrimidin-4-yl)amino)-1-methyl-2-oxo-1,2-dihydroquinolin-3-yl)oxy)-N-methylacetamide]"
2,++++ (Ymin ≤ 25%),"CNC(=O)COc1cc2cc(Nc3nc(NC[C@H]4CC[C@H](Nc5ccc6c(C7CCC(=O)NC7=O)nn(C)c6c5)CC4)ncc3Cl)ccc2n(C)c1=O (some centres unmarked) [Compound 289b, 2-((6-((5-chloro-2-((((1r,4r)-4-((3-(2,6-dioxopiperidin-3-yl)-1-methyl-1H-indazol-6-yl)amino)cyclohexyl)methyl)amino)pyrimidin-4-yl)amino)-1-methyl-2-oxo-1,2-dihydroquinolin-3-yl)oxy)-N-methylacetamide]"
3,+++ (25% < Ymin ≤ 50%),"CNC(=O)COc1cc2cc(Nc3nc(N4CCC(C5CN(c6ccc7c(C8CCC(=O)NC8=O)nn(C)c7c6)C5)CC4)ncc3Cl)ccc2n(C)c1=O (centres unmarked) [Compound 292, 2-((6-((5-chloro-2-(4-(1-(3-(2,6-dioxopiperidin-3-yl)-1-methyl-1H-indazol-6-yl)azetidin-3-yl)piperidin-1-yl)pyrimidin-4-yl)amino)-1-methyl-2-oxo-1,2-dihydroquinolin-3-yl)oxy)-N-methylacetamide]"
4,+++ (25% < Ymin ≤ 50%),"CNC(=O)COc1cc2cc(Nc3nc(NC[C@H]4CC[C@@H](CNc5ccc6c(C7CCC(=O)NC7=O)nn(C)c6c5)CC4)ncc3Cl)ccc2n(C)c1=O (some centres unmarked) [Compound 293a, 2-((6-((5-chloro-2-((((1s,4s)-4-(((3-(2,6-dioxopiperidin-3-yl)-1-methyl-1H-indazol-6-yl)amino)methyl)cyclohexyl)methyl)amino)pyrimidin-4-yl)amino)-1-methyl-2-oxo-1,2-dihydroquinolin-3-yl)oxy)-N-methylacetamide]"
5,++ (50% < Ymin ≤ 70%),"CNC(=O)COc1cc2cc(Nc3nc(NC[C@H]4CC[C@H](CNc5ccc6c(C7CCC(=O)NC7=O)nn(C)c6c5)CC4)ncc3Cl)ccc2n(C)c1=O (some centres unmarked) [Compound 293b, 2-((6-((5-chloro-2-((((1r,4r)-4-(((3-(2,6-dioxopiperidin-3-yl)-1-methyl-1H-indazol-6-yl)amino)methyl)cyclohexyl)methyl)amino)pyrimidin-4-yl)amino)-1-methyl-2-oxo-1,2-dihydroquinolin-3-yl)oxy)-N-methylacetamide]"
6,++ (50% < Ymin ≤ 70%),"CNC(=O)COc1cc2cc(Nc3nc(NC[C@H]4CCCN(c5ccc6c(C7CCC(=O)NC7=O)nn(C)c6c5)C4)ncc3Cl)ccc2n(C)c1=O (stereo partly drawn) [Compound 295a, 2-((6-((5-chloro-2-((((3R)-1-(3-(2,6-dioxopiperidin-3-yl)-1-methyl-1H-indazol-6-yl)piperidin-3-yl)methyl)amino)pyrimidin-4-yl)amino)-1-methyl-2-oxo-1,2-dihydroquinolin-3-yl)oxy)-N-methylacetamide]"
7,++ (50% < Ymin ≤ 70%),"CNC(=O)COc1cc2cc(Nc3nc(NC[C@@H]4CCCN(c5ccc6c(C7CCC(=O)NC7=O)nn(C)c6c5)C4)ncc3Cl)ccc2n(C)c1=O (stereo partly drawn) [Compound 295b, 2-((6-((5-chloro-2-((((3S)-1-(3-(2,6-dioxopiperidin-3-yl)-1-methyl-1H-indazol-6-yl)piperidin-3-yl)methyl)amino)pyrimidin-4-yl)amino)-1-methyl-2-oxo-1,2-dihydroquinolin-3-yl)oxy)-N-methylacetamide]"
8,+++ (25% < Ymin ≤ 50%),"CNC(=O)COc1cc2cc(Nc3nc(N4CCC(CCCOc5ccc6c(C7CCC(=O)NC7=O)nn(C)c6c5)CC4)ncc3Cl)ccc2n(C)c1=O (centres unmarked) [Compound 296, 2-((6-((5-chloro-2-(4-(3-((3-(2,6-dioxopiperidin-3-yl)-1-methyl-1H-indazol-6-yl)oxy)propyl)piperidin-1-yl)pyrimidin-4-yl)amino)-1-methyl-2-oxo-1,2-dihydroquinolin-3-yl)oxy)-N-methylacetamide]"
9,++ (50% < Ymin ≤ 70%),"CNC(=O)COc1cc2cc(Nc3nc(NC[C@H]4CC[C@@H](CNc5cccc6c(C7CCC(=O)NC7=O)nn(C)c56)CC4)ncc3Cl)ccc2n(C)c1=O (some centres unmarked) [Compound 297a, 2-((6-((5-chloro-2-((((1s,4s)-4-(((3-(2,6-dioxopiperidin-3-yl)-1-methyl-1H-indazol-7-yl)amino)methyl)cyclohexyl)methyl)amino)pyrimidin-4-yl)amino)-1-methyl-2-oxo-1,2-dihydroquinolin-3-yl)oxy)-N-methylacetamide]"
10,++ (50% < Ymin ≤ 70%),"CNC(=O)COc1cc2cc(Nc3nc(NC[C@H]4CC[C@H](CNc5cccc6c(C7CCC(=O)NC7=O)nn(C)c56)CC4)ncc3Cl)ccc2n(C)c1=O (some centres unmarked) [Compound 297b, 2-((6-((5-chloro-2-((((1r,4r)-4-(((3-(2,6-dioxopiperidin-3-yl)-1-methyl-1H-indazol-7-yl)amino)methyl)cyclohexyl)methyl)amino)pyrimidin-4-yl)amino)-1-methyl-2-oxo-1,2-dihydroquinolin-3-yl)oxy)-N-methylacetamide]"
11,+++ (25% < Ymin ≤ 50%),"CNC(=O)COc1cc2cc(Nc3nc(N4CCN(CC5CCC6(CC5)CN(c5ccc7c(C8CCC(=O)NC8=O)nn(C)c7c5)C6)CC4)ncc3Cl)ccc2n(C(C)C)c1=O (centres unmarked) [Compound 298, 2-((6-((5-chloro-2-(4-((2-(3-(2,6-dioxopiperidin-3-yl)-1-methyl-1H-indazol-6-yl)-2-azaspiro[3.5]nonan-7-yl)methyl)piperazin-1-yl)pyrimidin-4-yl)amino)-1-isopropyl-2-oxo-1,2-dihydroquinolin-3-yl)oxy)-N-methylacetamide]"
12,+++ (25% < Ymin ≤ 50%),"CNC(=O)COc1cc2cc(Nc3nc(N4CCC[C@H](CN(C)c5cccc6c(C7CCC(=O)NC7=O)nn(C)c56)C4)ncc3Cl)ccc2n(C)c1=O (stereo partly drawn) [Compound 299a, 2-((6-((5-chloro-2-((3R)-3-(((3-(2,6-dioxopiperidin-3-yl)-1-methyl-1H-indazol-7-yl)(methyl)amino)methyl)piperidin-1-yl)pyrimidin-4-yl)amino)-1-methyl-2-oxo-1,2-dihydroquinolin-3-yl)oxy)-N-methylacetamide]"
13,++ (50% < Ymin ≤ 70%),"CNC(=O)COc1cc2cc(Nc3nc(N4CCC[C@@H]4CNc4cccc5c(C6CCC(=O)NC6=O)nn(C)c45)ncc3Cl)ccc2n(C)c1=O (stereo partly drawn) [Compound 300a, 2-((6-((5-chloro-2-((2R)-2-(((3-(2,6-dioxopiperidin-3-yl)-1-methyl-1H-indazol-7-yl)amino)methyl)pyrrolidin-1-yl)pyrimidin-4-yl)amino)-1-methyl-2-oxo-1,2-dihydroquinolin-3-yl)oxy)-N-methylacetamide]"
14,+ (Ymin > 70%),"CNC(=O)COc1cc2cc(Nc3nc(N4CCC[C@H]4CNc4cccc5c(C6CCC(=O)NC6=O)nn(C)c45)ncc3Cl)ccc2n(C)c1=O (stereo partly drawn) [Compound 300b, 2-((6-((5-chloro-2-((2S)-2-(((3-(2,6-dioxopiperidin-3-yl)-1-methyl-1H-indazol-7-yl)amino)methyl)pyrrolidin-1-yl)pyrimidin-4-yl)amino)-1-methyl-2-oxo-1,2-dihydroquinolin-3-yl)oxy)-N-methylacetamide]"
15,++ (50% < Ymin ≤ 70%),"CNC(=O)COc1cc2cc(Nc3nc(N4CCC[C@H](COc5cccc6c(C7CCC(=O)NC7=O)nn(C)c56)C4)ncc3Cl)ccc2n(C)c1=O (stereo partly drawn) [Compound 301a, 2-((6-((5-chloro-2-((3S)-3-(((3-(2,6-dioxopiperidin-3-yl)-1-methyl-1H-indazol-7-yl)oxy)methyl)piperidin-1-yl)pyrimidin-4-yl)amino)-1-methyl-2-oxo-1,2-dihydroquinolin-3-yl)oxy)-N-methylacetamide]"
16,++ (50% < Ymin ≤ 70%),"CNC(=O)COc1cc2cc(Nc3nc(N4CCC[C@@H](COc5cccc6c(C7CCC(=O)NC7=O)nn(C)c56)C4)ncc3Cl)ccc2n(C)c1=O (stereo partly drawn) [Compound 301b, 2-((6-((5-chloro-2-((3R)-3-(((3-(2,6-dioxopiperidin-3-yl)-1-methyl-1H-indazol-7-yl)oxy)methyl)piperidin-1-yl)pyrimidin-4-yl)amino)-1-methyl-2-oxo-1,2-dihydroquinolin-3-yl)oxy)-N-methylacetamide]"
17,++ (50% < Ymin ≤ 70%),"CNC(=O)COc1cc2cc(Nc3nc(N4CCC[C@H](COc5ccc6c(C7CCC(=O)NC7=O)nn(C)c6c5)C4)ncc3Cl)ccc2n(C)c1=O (stereo partly drawn) [Compound 302a, 2-((6-((5-chloro-2-((3S)-3-(((3-(2,6-dioxopiperidin-3-yl)-1-methyl-1H-indazol-6-yl)oxy)methyl)piperidin-1-yl)pyrimidin-4-yl)amino)-1-methyl-2-oxo-1,2-dihydroquinolin-3-yl)oxy)-N-methylacetamide]"
